Seven molecules from US20260200921A1, “SUBSTITUTED AMINOPYRIDINE COMPOUNDS AS AKT INHIBITORS” (Atavistik Bio, Inc., priority 2023, published 2026) can be followed below.

One test deals with T1, AKT1 E17K (Homo sapiens, UniProt P31749, E17K).
T1 construct: Purified human recombinant kinase full-length AKT1 E17K was expressed in insect cells; made in house; host or cells: insect cells
The test can be described thus: AKT1 E17K kinase assay (TR-FRET, Lance). In kind it is biochemical. As to conditions: full-length human recombinant AKT1 E17K activated by PDPK1; Ulight-CREBtide substrate; either 50 μM ATP or 2 mM ATP. The protocol: AKT1 E17K kinase assay: Inhibitory effects of compounds on AKT1 E17K were undertaken in a 10-pt dose response kinase activity assay measuring phospho-peptide product formation based on TR-FRET signal as described in the following paragraph.
(§1) Purified human recombinant kinase full-length AKT1 E17K was expressed in insect cells and activated in vitro by PDPK1. Ulight™-CREBtide (PerkinElmer, catalog number TRF0107) was used as the peptide substrate. The reaction buffer consisted of 50 mM HEPES pH 7.5, 10 mM MgCl2, 0.01% Triton X-100, 0.01% BSA, 2 mM DTT, 0.6 nM AKT1 E17K, 50 nM Ulight™-CREBtide and either 50 μM ATP or 2 mM ATP. The compound solution was prepared as 10 mM DMSO stock. For the assay, a 1:3 serial dilution 10-pt dose response of test compounds, in duplicate, for each concentration were dispensed into a 384-well plate (Corning, catalog number 4513). Final DMSO concentration in the assay was 1%. The enzyme mixture (5 μL, 1.2 nM) were added and the mixture was incubated for 15 min at RT prior to the start of the kinase reaction by the addition of 5 μL substrate mixture (100 nM Ulight™-CREBtide). The reaction was stopped after 60 min of incubation at RT by the addition of 10 μL of Detection Mix (PerkinElmer, #CR97-100) consisting of Europium-anti-phospho-CREB (Ser133) (Perkin Elmer, catalog numberTRF0200). Incubation with the detection mix for a further 60 min allowed binding of antibody to the phospho-Ulight™ CREBtide. The fluorescence emissions at 620 nm and 665 nm after excitation at 350 nm was measured using Envision reader. The ratio of the emissions at 665 nm and at 620 nm provided the measure for the amount of phosphorylated CREBtide product of AKT1 E17K kinase activity. To determine the IC50 values, the data was normalized (enzyme reaction without inhibitor=0% inhibition, all other assay components but no enzyme=100% inhibition) and IC50 values were calculated by a 4-parameter fit using an in-house developed protocol.

A further test deals with T2, wildtype AKT1 (Homo sapiens, UniProt P31749).
T2 construct: Purified human recombinant kinase full-length wildtype AKT1 was expressed in insect cells; made in house; host or cells: insect cells
T2 sequence (P31749 whole entry): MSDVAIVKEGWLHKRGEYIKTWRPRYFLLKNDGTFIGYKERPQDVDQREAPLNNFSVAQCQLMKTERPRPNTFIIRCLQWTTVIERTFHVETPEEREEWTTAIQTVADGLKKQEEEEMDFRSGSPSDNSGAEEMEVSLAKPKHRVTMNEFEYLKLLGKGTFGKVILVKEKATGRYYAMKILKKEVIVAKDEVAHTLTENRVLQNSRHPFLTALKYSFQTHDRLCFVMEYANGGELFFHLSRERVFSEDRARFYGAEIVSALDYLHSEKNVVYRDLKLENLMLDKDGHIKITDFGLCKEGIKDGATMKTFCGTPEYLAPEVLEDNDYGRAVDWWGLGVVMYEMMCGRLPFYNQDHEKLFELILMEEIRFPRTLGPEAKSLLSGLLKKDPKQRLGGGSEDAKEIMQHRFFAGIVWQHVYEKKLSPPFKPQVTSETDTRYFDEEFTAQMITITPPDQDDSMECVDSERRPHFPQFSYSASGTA
In words: AKT1 kinase assay, wildtype (TR-FRET, Lance). It counts as biochemical. As to conditions: full-length human recombinant wildtype AKT1 activated by PDPK1; Ulight-CREBtide substrate; either 50 μM ATP or 2 mM ATP. The protocol:
AKT1 kinase assay: Inhibitory effects of compounds on wildtype AKT1 were undertaken in a 10-pt dose response kinase activity assay measuring phospho-peptide product formation based on TR-FRET signal as described in the following paragraph.
as §1, with “full-length wildtype” for “full-length”, “AKT1” for “AKT1 E17K”, “nM AKT1,” for “nM AKT1 E17K,”, “Mix (PerkinElmer.” for “Mix (PerkinElmer,”

A value given as a limit tells only on which side of the number the result lay.

T1 sequence (P31749 whole entry E17K): as the sequence (P31749 whole entry) above, with E17K counted along it

With `Cc1nc(NC(=O)c2ccc(-c3nsc(=O)[nH]3)cc2)ccc1-n1c(-c2cccnc2N)nc2ccc(-c3ccccc3)nc21` [Compound I-42, N-(5-(2-(2-aminopyridin-3-yl)-5-phenyl-3H-imidazo[4,5-b]pyridin-3-yl)-6-methylpyridin-2-yl)-4-(5-oxo-4,5-dihydro-1,2,4-thiadiazol-3-yl)benzamide], the IC50 on AKT1 E17K is 50 to 200 nM; on wildtype AKT1, less than 500 nM.

In the case of `Nc1ncccc1-c1nc2ccc(-c3ccccc3)nc2n1-c1ccc(C2CN(C[C@H]3CC[C@H](c4nsc(=O)[nH]4)CC3)C2)cc1` [Compound I-43, 3-((1r,4r)-4-((3-(4-(2-(2-aminopyridin-3-yl)-5-phenyl-3H-imidazo[4,5-b]pyridin-3-yl)phenyl)azetidin-1-yl)methyl)cyclohexyl)-1,2,4-thiadiazol-5(4H)-one], the figures for the IC50 at AKT1 E17K and on wildtype AKT1 were not below 500 nM and less than 500 nM, respectively.

Regarding `Nc1ncccc1-c1nc2ccc(-c3ccccc3)nc2n1-c1ccc(C2CN(C[C@H]3CC[C@@H](c4nsc(=O)[nH]4)CC3)C2)cc1` [Compound I-44, 3-((1s,4s)-4-((3-(4-(2-(2-aminopyridin-3-yl)-5-phenyl-3H-imidazo[4,5-b]pyridin-3-yl)phenyl)azetidin-1-yl)methyl)cyclohexyl)-1,2,4-thiadiazol-5(4H)-one], the results for the half-maximal inhibitory concentration (IC50) on AKT1 E17K and on wildtype AKT1 were not below 500 nM and less than 500 nM, respectively.

For `Nc1ncccc1-c1nc2ccc(-c3ccccc3)nc2n1-c1ccc(C2CCN(C[C@H]3CC[C@H](c4nsc(=O)[nH]4)CC3)CC2)cc1` [Compound I-45, 3-((1r,4r)-4-((4-(4-(2-(2-aminopyridin-3-yl)-5-phenyl-3H-imidazo[4,5-b]pyridin-3-yl)phenyl)piperidin-1-yl)methyl)cyclohexyl)-1,2,4-thiadiazol-5(4H)-one], the values for the IC50 at AKT1 E17K and on wildtype AKT1 were not below 500 nM and less than 500 nM, respectively.

For `Nc1ncccc1-c1nc2ccc(-c3ccccc3)nc2n1-c1ccc(C2CCN(C[C@H]3CC[C@@H](c4nsc(=O)[nH]4)CC3)CC2)cc1` [Compound I-46, 3-((1s,4s)-4-((4-(4-(2-(2-aminopyridin-3-yl)-5-phenyl-3H-imidazo[4,5-b]pyridin-3-yl)phenyl)piperidin-1-yl)methyl)cyclohexyl)-1,2,4-thiadiazol-5(4H)-one], the half-inhibitory concentration (IC50) at AKT1 E17K was not below 500 nM; on wildtype AKT1 it was less than 500 nM.

For `CN(Cc1ccc(-n2c(-c3cccnc3N)nc3ccc(-c4ccccc4)nc32)cc1)[C@H]1CC[C@H](c2nsc(=O)[nH]2)CC1` [Compound I-47, 3-((1r,4r)-4-((4-(2-(2-aminopyridin-3-yl)-5-phenyl-3H-imidazo[4,5-b]pyridin-3-yl)benzyl)(methyl)amino)cyclohexyl)-1,2,4-thiadiazol-5(4H)-one], the IC50 at AKT1 E17K is not below 500 nM; on wildtype AKT1, less than 500 nM.

As for `CN(Cc1ccc(-n2c(-c3cccnc3N)nc3ccc(-c4ccccc4)nc32)cc1)[C@H]1CC[C@@H](c2nsc(=O)[nH]2)CC1` [Compound I-48, 3-((1s,4s)-4-((4-(2-(2-aminopyridin-3-yl)-5-phenyl-3H-imidazo[4,5-b]pyridin-3-yl)benzyl)(methyl)amino)cyclohexyl)-1,2,4-thiadiazol-5(4H)-one], the half-inhibitory concentration (IC50) on AKT1 E17K is 50 to 200 nM; at wildtype AKT1 it was less than 500 nM.
